“And” between values parts separate entries of the source, which are not always exact repeats. Equal values may be shown once. Inconclusive results and toxic doses are left out.

The subject of the experiment is P388 leukemia ip, CD2F1 mice, survival T/C. Kind of experiment: NCI In Vivo Anticancer Drug Screen. Data for tumor model P388 Leukemia (intraperitoneal) in CD2F1 (CDF1) mice. The settings on record: endpoint: median survival time, higher = longer survival. An outline of the steps: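 Mice carrying the transplanted tumor received test compound or vehicle. Survival was recorded in each group, and the value is the treated-group measurement divided by that of the vehicle-treated control group.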

[1] abbreviates: dose: 12.5 mg/kg/injection, schedule: Q01DX009 (ip), vehicle: Klucel (hydroxypropylcellulose) (HPC).
Setting [2] is: dose: 50.0 mg/kg/injection, schedule: Q01DX009 (ip), vehicle: Klucel (hydroxypropylcellulose) (HPC).
The mark [3] stands for this setting: dose: 100.0 mg/kg/injection, schedule: Q01DX009 (ip), vehicle: Klucel (hydroxypropylcellulose) (HPC).
Setting [4] is: dose: 60.0 mg/kg/injection, schedule: Q01DX005 (ip), vehicle: saline with Tween-80.
The mark [5] stands for this setting: dose: 120.0 mg/kg/injection, schedule: Q01DX005 (ip), vehicle: saline with Tween-80.
The mark [6] stands for this setting: dose: 240.0 mg/kg/injection, schedule: Q01DX005 (ip), vehicle: saline with Tween-80.
Where [7] appears, read: dose: 50.0 mg/kg/injection, schedule: Q01DX009 (ip), vehicle: saline with Tween-80.
[8] abbreviates: dose: 12.5 mg/kg/injection, schedule: Q01DX009 (ip), vehicle: saline with Tween-80.
[9] abbreviates: dose: 50.0 mg/kg/injection, schedule: Q01DX009 (ip), vehicle: saline.

For the compound `CC(=O)OCc1cc(=O)n(C)c2c3c4c(cc12)c(C)cc(=O)n4CO3`, the T/C by setting is: under setting [1], 123 % of control; (dose: 25.0 mg/kg/injection, schedule: Q03HX015 (ip), vehicle: Klucel (hydroxypropylcellulose) (HPC)) 173 % of control; (dose: 25.0 mg/kg/injection, schedule: Q04DX002 (ip), vehicle: Klucel (hydroxypropylcellulose) (HPC)) 121 % of control; (dose: 25.0 mg/kg/injection, schedule: Q06HX010 (ip), vehicle: Klucel (hydroxypropylcellulose) (HPC)) 152 % of control; (dose: 50.0 mg/kg/injection, schedule: Q01DX001 (ip), vehicle: Klucel (hydroxypropylcellulose) (HPC)) 119 % of control and 124 % of control; under setting [2], 157 % of control. Further, the T/C is, setting by setting: (dose: 50.0 mg/kg/injection, schedule: Q06HX010 (ip), vehicle: Klucel (hydroxypropylcellulose) (HPC)) 105 % of control; under setting [3], 86 % of control; (dose: 200.0 mg/kg/injection, schedule: Q01DX001 (ip), vehicle: Klucel (hydroxypropylcellulose) (HPC)) 155 % of control; (dose: 200.0 mg/kg/injection, schedule: Q04DX002 (ip), vehicle: Klucel (hydroxypropylcellulose) (HPC)) 168 % of control; (dose: 400.0 mg/kg/injection, schedule: Q01DX001 (ip), vehicle: Klucel (hydroxypropylcellulose) (HPC)) 157 % of control and 176 % of control; (dose: 800.0 mg/kg/injection, schedule: Q01DX001 (ip), vehicle: Klucel (hydroxypropylcellulose) (HPC)) 168 % of control.
On to `CC(C)C(Nc1nncs1)Nc1nncs1`, for which the T/C is, setting by setting: under setting [4], 103 % of control; under setting [5], 109 % of control; under setting [6], 118 % of control.
For `CC(=O)CCCCCCCCCCCCCCC1=C(C)C(=O)OC1=O`, the T/C runs as follows: (dose: 25.0 mg/kg/injection, schedule: Q01DX005 (ip), vehicle: Klucel (hydroxypropylcellulose) (HPC)) 103 % of control; (dose: 50.0 mg/kg/injection, schedule: Q01DX005 (ip), vehicle: Klucel (hydroxypropylcellulose) (HPC)) 99 % of control; (dose: 100.0 mg/kg/injection, schedule: Q01DX005 (ip), vehicle: Klucel (hydroxypropylcellulose) (HPC)) 89 % of control; (dose: 400.0 mg/kg/injection, schedule: Q01DX005 (ip), vehicle: Klucel (hydroxypropylcellulose) (HPC)) 96 % of control.
Take `Cc1cc(C)c(OC2=C(c3c(C)cc(C)cc3C)C(=O)c3ccccc32)c(C)c1`: the T/C is, setting by setting: under setting [7], 94 % of control; (dose: 100.0 mg/kg/injection, schedule: Q01DX009 (ip), vehicle: saline with Tween-80) 94 % of control; (dose: 200.0 mg/kg/injection, schedule: Q01DX009 (ip), vehicle: saline with Tween-80) 86 % of control.
Turning to `CS[C@@H]1C[C@H]2[C@@H]3CCC4=CC(=O)CC[C@]4(C)[C@H]3CC[C@]2(C)[C@H]1C(C)=O`, the T/C runs as follows: under setting [8], 90 % of control; (dose: 25.0 mg/kg/injection, schedule: Q01DX009 (ip), vehicle: saline with Tween-80) 90 % of control; under setting [7], 100 % of control; (dose: 100.0 mg/kg/injection, schedule: Q04DX003 (ip), vehicle: saline with Tween-80) 100 % of control; (dose: 200.0 mg/kg/injection, schedule: Q04DX003 (ip), vehicle: saline with Tween-80) 90 % of control; (dose: 400.0 mg/kg/injection, schedule: Q04DX003 (ip), vehicle: saline with Tween-80) 100 % of control.
As for `[Cl][Sn]([Cl])([c]1ccccc1)[c]1ccccc1.c1ccncc1.c1ccncc1`, the T/C reads like this: (dose: 3.12 mg/kg/injection, schedule: Q01DX009 (ip), vehicle: saline) 150 % of control; (dose: 6.25 mg/kg/injection, schedule: Q01DX009 (ip), vehicle: Klucel (hydroxypropylcellulose) (HPC)) 153 % of control and 166 % of control; (dose: 6.25 mg/kg/injection, schedule: Q01DX009 (ip), vehicle: saline) 156 % of control; under setting [1], 155 % of control and 180 % of control; under setting [8], 151 % of control.
`O=C1CC(c2ccccc2)C(c2ccccc2)C(=O)O1` (centres undefined): the T/C is 87 % of control (dose: 100.0 mg/kg/injection, schedule: Q04DX003 (ip), vehicle: Klucel (hydroxypropylcellulose) (HPC)); 93 % of control (dose: 200.0 mg/kg/injection, schedule: Q04DX003 (ip), vehicle: Klucel (hydroxypropylcellulose) (HPC)); 91 % of control (dose: 400.0 mg/kg/injection, schedule: Q04DX003 (ip), vehicle: Klucel (hydroxypropylcellulose) (HPC)).
As to `CNC(=S)N/N=C\C(C)=N/N1CCCCCC1`, the T/C is 97 % of control (dose: 100.0 mg/kg/injection, schedule: Q04DX002 (ip), vehicle: saline); 101 % of control (dose: 200.0 mg/kg/injection, schedule: Q04DX002 (ip), vehicle: saline); 93 % of control (dose: 400.0 mg/kg/injection, schedule: Q04DX002 (ip), vehicle: saline).
`COC(=O)c1nc2nnc(N)n2c(-c2ccc(Cl)cc2)c1C`: the T/C runs as follows: under setting [4], 100 % of control; under setting [5], 101 % of control; under setting [6], 96 % of control.
Consider `CC(C)(O)c1ccc[n+]([O-])c1`, for which the T/C was 98 % of control under setting [9]; 107 % of control (dose: 100.0 mg/kg/injection, schedule: Q01DX009 (ip), vehicle: saline); 100 % of control (dose: 200.0 mg/kg/injection, schedule: Q01DX009 (ip), vehicle: saline).
On to `C=C1C2CCC3(CCC4C5(C)CCCC4(C=[N+](CCO)C5)C3C2)C1O` (centres undefined), for which the T/C (dose: 25.0 mg/kg/injection, schedule: Q01DX009 (ip), vehicle: Klucel (hydroxypropylcellulose) (HPC)) was 94 % of control.
`CCOc1cccc(C=N)c1O`: the T/C is, setting by setting: under setting [4], 111 % of control; under setting [5], 105 % of control.
Regarding `Cc1cc(C)c(C(CC(=O)O)C(CC(=O)O)c2c(C)cc(C)cc2C)c(C)c1` (centres undefined), the T/C (dose: 60.0 mg/kg/injection, schedule: Q01DX005 (ip), vehicle: Klucel (hydroxypropylcellulose) (HPC)) is 90 % of control.
Consider `COc1ccc(/C=C/C(=O)CCC(=O)O)cc1OC`, for which the T/C is 100 % of control and 109 % of control under setting [2]; 114 % of control under setting [9]; 108 % of control and 109 % of control under setting [3]; 106 % of control and 110 % of control (dose: 200.0 mg/kg/injection, schedule: Q01DX009 (ip), vehicle: Klucel (hydroxypropylcellulose) (HPC)).
In the case of `O=c1c(Cl)c2cc3c(cc2c2ccccc12)nc1ccccc1n3-c1ccccc1`, the T/C (dose: 400.0 mg/kg/injection, schedule: Q01DX001 (ip), vehicle: saline with Tween-80) was 89 % of control.
As for `O=C1C(CO)NC(=S)N1c1ccccc1` (centres undefined), the T/C is, setting by setting: (dose: 12.5 mg/kg/injection, schedule: Q01DX001 (ip), vehicle: saline with Tween-80) 109 % of control; (dose: 25.0 mg/kg/injection, schedule: Q01DX001 (ip), vehicle: saline with Tween-80) 102 % of control; (dose: 50.0 mg/kg/injection, schedule: Q01DX001 (ip), vehicle: saline with Tween-80) 97 % of control; (dose: 100.0 mg/kg/injection, schedule: Q01DX001 (ip), vehicle: saline with Tween-80) 105 % of control; (dose: 200.0 mg/kg/injection, schedule: Q01DX001 (ip), vehicle: saline with Tween-80) 102 % of control.

The record behind these values is PubChem BioAssay AID330 (DTP/NCI, 2004).
